Test system: Cochliobolus miyabeanus
Experiment: activity against brown spot of rice caused by Cochliobolus miyabeanus, protective treatment
Type: in vivo
Details: individual active compound, rice leaves, 6 days after inoculation
Experimental: The active compounds, separately or jointly, were prepared as a stock solution comprising 0.25% by weight of active compound in acetone or DMSO. 1% by weight of the emulsifier Uniperol® EL (wetting agent having emulsifying and dispersing action based on ethoxylated alkylphenols) was added to this solution, and the mixture was appropriately diluted with water to the desired concentration.
Use example—activity against brown spot of rice caused by Cochliobolus miyabeanus, protective treatment Leaves of potted rice seedlings of the cultivar “Tai-Nong 67” were sprayed to runoff point with an aqueous suspension having the concentration of active compound stated below. The next day, the plants were inoculated with an aqueous spore suspension of Cochliobolus miyabeanus. The test plants were then placed in climatized chambers at 22-24° C. and 95-99% relative atmospheric humidity for six days. The extent of the development of the infection on the leaves was then determined visually.
Evaluation is carried out by determining the percentage of infected leaf areas. These percentages were converted into efficacies.
The efficacy (E) is calculated as follows using Abbot's formula: E=(1−α/β)·100 α corresponds to the fungicidal infection of the treated plants in % and β corresponds to the fungicidal infection of the untreated (control) plants in % An efficacy of 0 means that the infection level of the treated plants corresponds to that of the untreated control plants; an efficacy of 100 means that the treated plants are not infected.
The expected efficacies of mixtures of active compounds are determined using Colby's formula (Colby, R. S., Weeds, 15, 20-22, 1967) and compared with the observed efficacies.
Colby's formula: E=x+y−x·y/100 • E expected efficacy, expressed in % of the untreated control, when using the mixture of the active compounds A and B at the concentrations a and b • x efficacy, expressed in % of the untreated control, when using the active compound A at the concentration a • y efficacy, expressed in % of the untreated control, when using the active compound B at the concentration b

SMILES	Efficacy in % of the untreated control (6.25 ppm in the spray liquor) [%]	Efficacy in % of the untreated control (25 ppm in the spray liquor) [%]
CC(=O)O.CCCCCCCCCCCCNC(=N)N [II (dodine), 1-dodecylguanidinium acetate]	0	0
C[C@H](Nc1c(-c2c(F)cc(F)cc2F)c(Cl)nc2ncnn12)C(F)(F)F [B]	56	–
CC1CCN(c2c(-c3c(F)cccc3Cl)c(Cl)nc3ncnn23)CC1 [A]	33	–
CC1CCN(c2c(-c3c(F)cc(F)cc3F)c(Cl)nc3ncnn23)CC1 [I, 5-chloro-7-(4-methylpiperidin-1-yl)-6-(2,4,6-trifluorophenyl)-[1,2,4]tri-azolo[1,5-a]pyrimidine]	56	–

Reference: patent US20070208039A1, “Fungicidal Mixtures for Controlling Rice Pathogens” (priority 2004, published 2007)
